Twelve compounds from US20250188078A1, “SMALL MOLECULE INHIBITORS OF THE CRL4 UBIQUITIN LIGASE” (Cornell University, priority 2022, published 2025) can be followed below.

SMILES strings stand for the structures.

In data set [1] the target is CUL4A-DDB1-BPB interaction (Homo sapiens (Human), UniProt Q16531). The experiment in a line: AlphaLISA in vitro binding assay, CUL4A and DDB1-BPB binding. The conditions noted are these: inhibition of CUL4A and DDB1-BPB binding. An outline of the steps:
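Compound disruption of CUL4A binding to DDB1-BPB measured by AlphaLISA/AlphaScreen bead proximity in 384-well format. IC50 from nonlinear log(inhibitor)-vs-response curve fit.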
Background: In Alpha technology, singlet oxygen from a donor bead excites a nearby acceptor bead.

The test system of data set [2] is CUL4A^low T47D breast cancer cells. Put plainly: Cell killing in CUL4-low T47D cells (CellTiter Glo). The format is cell-based. Conditions: Homo sapiens, 192 h; T47D cells, 8 days treatment; read-out: EC50 CUL4-Low Cells (cell killing). The protocol: EC50 indicates compound concentration can cause 50% cell killing in CUL4° ^w T47D cells (see Table 1, column 7). CUL4A^low T47D breast cancer cells were seeded in 96 well plate. […] Change fresh medium and compounds every 48 hours. After 8 days treatment, cell viability was examined by using CellTiter Glo kit (Promega #7570) following the manufacturer's guidelines (https://www.promega.com/-/media/files/resources/protocols/technical-bulletins/0/celltiter-glo-luminescent-cell-viability-assay-protocol.pdf?rev=0d95c232094b41daa06d0c110d1d916f&sc_lang=en, hereby incorporated by reference in its entirety for all purposes). EC50 concentration was calculated by Prism 8 XY analysis nonlinear regression (curve fit-Log(inhibitor) vs response). EC50 indicates cell killing potential in CUL4 low T47D cell line and the EC50 difference between CUL4^high and CUL4^low cells indicates the small molecule cause specific cell killing.
CUL4A^high MDA-MB-468, CUL4^low (T47D), and MCF7 breast cancer cells were seeded in 96 well plates separately. […] Replace with fresh medium and compounds every 48 hours. After 8 days treatment, cell viability was examined by CellTiter Glo kit (Promega #7570). First, transfer the appropriate volume (10 ml for Cat. #G7570) of CellTiter-Glo® Buffer into the amber bottle containing CellTiter-Glo® Substrate to reconstitute the lyophilized enzyme/substrate mixture. This forms the CellTiter-Glo® Reagent. Second, add CellTiter-Glo® Reagent in an equal volume (100 μl per well for 96-well plates) to all wells. Mix contents for 2 minutes on an orbital shaker to induce cell lysis. Incubate at room temperature for 15 minutes to stabilize luminescent signal. Then record luminescence. EC50 concentration was calculated by Prism 8 XY analysis nonlinear regression (curve fit-Log(inhibitor) vs response).
For orientation: Cellular ATP, detected with luciferase, serves as a proxy for viable cell number.

The test system of data set [3] is CUL4A^high MDA-MB-468 breast cancer cells. Put plainly: Cell killing in CUL4-high MDA-MB-468 cells (CellTiter Glo). The format is cell-based. Conditions: Homo sapiens, 192 h; MDA-MB-468 cells, 8 days treatment; read-out: EC50 CUL4-High Cells (cell killing). The method in brief: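 Cells seeded, treated after 24 h with DMSO or compound (0 to 20 μM). Medium and compound replaced every 48 h over 8 days. Viability measured by CellTiter-Glo luminescence; EC50 (50% killing) from log(inhibitor) vs response nonlinear fit.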

For data set [4], the system named is UV-induced CUL4-dependent DDB2 degradation in MEF-F-DDB2 cells. The experiment in a line: Cell-based assay for inhibition of UV-induced CUL4-dependent DDB2 degradation. Details: key: (+) means that the normalized DDB2/α-tubulin ratio is higher in the compound treated sample than DMSO treated sample; (−) means that no change happens between compound treated sample with control sample. Conditions: DDB2/α-tubulin by Western blot. An outline of the steps:
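MEF cells expressing Flag-DDB2, in serum-free medium, treated with DMSO or compound, UV-irradiated (254 nm, 0.2 W/m^2), then harvested. Flag-DDB2 measured by western blot against α-tubulin; (+) denotes normalized DDB2/α-tubulin above DMSO, (−) no change.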
On the technique in general: Immunoblotting shows a protein as a band on a membrane.

A short description of data set [5]: Dynamic light scattering (DLS) solubility assay. The format is physicochemical. Conditions: normalized intensity ratio of 25 μM compound vs DMSO, in PBS. The protocol:
Dynamic light scattering (DLS) (see Table 1, column 3) is a tool for studying the diffusion behavior of macromolecules in solution. To profile compound solubility, DLS assay was developed for measuring aggregation of small molecule compounds. Compound stock solution was prepared in DMSO. Dilution series were made for each compound in DMSO to ensure a final 1× assay concentration range of 200 μM to 0.78 μM. For example, if the final DMSO concentration was 1%, compounds were prepared at 100× concentrations ranging from […] to 78 μM. Dilute compounds in PBS solution to final concentration. Place 60 μl/well in 96 well plates and 3 replicates for each sample. Data were collected using a DynaPro Plate Reader III (WYATT Technologies, Inc., USA). The instrument was adjusted to measure the optimal light scattering intensity according to the manufacturer's instructions. […] The ratio over 2 means (−) insoluble. The ratio below 2 means (+) soluble and around 2 means (+/−).

Data set [6] addresses T1, DDB1-BPB (Homo sapiens (Human), UniProt Q16531). The experiment in a line: Microscale Thermophoresis (MST) binding to DDB1-BPB. The conditions noted are these: labeled DDB1-BPB, 25° C. As to the method:
Kd represents dissociation constant, which measures the affinity of small molecule binding to the scaffold DDB1-BPB by Microscale Thermophoresis (MST) (see Table 1, column 9). MST experiments were performed on a Monolith NT 115 system (Nano Temper Technologies, Munich, Germany) using 100% LED and 60% IR-laser power (https://physiology.case.edu/media/eq manuals/eq_manual_nano-temper_mst_starting_guide.pdf, hereby incorporated by reference in its entirety for all purposes). The labeling of DDB1-BPB ([…]) was performed in labeling buffer with NHS-Red reactive dye (30 μM) (Nanotemper), which reacts efficiently with the primary amines of the proteins to form a stable dye protein conjugates. The labeling reaction was carried out at RT. A 16-point serial dilution (1:1) was prepared for compound at the final concentration ranged from 200 µM to 3 nM in PBS containing 0.05% tween. The samples were filled into Premium capillaries and measurements were conducted at 25° C. An equation implemented by the software MO-S002 MO Affinity Analysis, provided by the manufacturer, was used for fitting normalized fluorescence values at different concentrations of ligands.

Data set [7] concerns the target T1, DDB1-BPB. The experiment in a line: Surface Plasmon Resonance (SPR) binding to DDB1-BPB. Conditions: DDB1-BPB immobilized. The text has this: Kd represents dissociation constant, which measures the affinity of small molecule binding to the scaffold DDB1-BPB by Surface Plasmon Resonance (SPR) (https://www.bio-rad.com/webroot/web/pdf/lsr/literature/Bulletin_6414.pdf, hereby incorporated by reference in its entirety) (see Table 1, column 8). To assess the interaction between DDB1-BPB and compounds, a multi-parametric SPR instrument (BioRad ProteON XPR360) was used. DDB1-BPB was immobilized onto the GLH sensor surface in a variety of ways as follows: flow channels were activated in parallel with 1/20 diluted EDC/SNHS. DDB1-BPB was diluted to 0.1 mg/mL in sodium acetate pH 4.5 and directly coupled onto channel for 4 min. Excess reactive esters were blocked with a 5-min injection of 1 M ethanolamine. Mean immobilization levels were 17,000 RU with <2% variation along a strip. One channel was left unmodified to provide an additional reference surface. Next, the binding kinetics of compounds on surfaces was determined in a single injection using a “one-shot” kinetic mode. Typically, compound was prepared as a twofold serial dilution (0, 3.125, 6.25, 12.5, 25, 50 μM) and injected for 60 s at […]. Dissociation was monitored for 800 s. Surfaces were regenerated with multiple 30-s pulses of 60 mM phosphoric acid so that the experiment could be reproduced. All resulting sensor grams were collected and analyzed using the ProteOn manager software.

T1 sequence (Q16531 403-706): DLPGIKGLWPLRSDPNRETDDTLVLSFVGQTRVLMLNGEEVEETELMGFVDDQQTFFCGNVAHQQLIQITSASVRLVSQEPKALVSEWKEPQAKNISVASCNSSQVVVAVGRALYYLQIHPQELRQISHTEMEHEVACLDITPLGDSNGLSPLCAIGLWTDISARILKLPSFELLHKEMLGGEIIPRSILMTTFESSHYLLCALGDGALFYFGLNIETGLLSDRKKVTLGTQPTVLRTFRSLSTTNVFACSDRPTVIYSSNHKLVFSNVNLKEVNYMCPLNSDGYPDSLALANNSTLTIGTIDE
Chain of CUL4A-DDB1-BPB interaction (Q16531 403-706): as above

Broadly, the EC50 is the concentration that produces a half-maximal response. A word on the Kd: it is the concentration at which binding is half-saturated. For the compound `COC(=O)c1cc2c([nH]c3cccc(F)c32)c(-c2ccc(N(C)S(=O)(=O)c3ccccc3)cc2)n1` [PA99-1, methyl 5-fluoro-1-(4-(N-methylphenylsulfonamido)phenyl)-9H-pyrido[3,4-b]indole-3-carboxylate], the “AlphaLisa IC50” value in data set [1] is “Neg”. For the same compound, the concentration for a half-maximal effect (EC50) is over 100 µM in data set [2] and 3.47 µM in data set [3]. The “Degradation Inhibition (inhibition of UV-induced DDB2 degradation)” value (“Degradation Inhibition” for short) in data set [4] is reported as “+”. Moreover, the “Solubility (DLS Assay)” value in data set [5] is on record as “-(insoluble)”. The same compound had a dissociation constant (Kd) on DDB1-BPB [6] of 321 µM.

Broadly, the IC50 is the midpoint of a concentration-inhibition curve. Regarding `Cc1ccc2[nH]c3c(-c4ccc(S(C)(=O)=O)cc4)nc(C(=O)O)cc3c2c1` [PA72], the IC50 in data set [1] amounted to 0.78 ± 0.02 µM. In data set [4], the “Degradation Inhibition” value is “−”. Besides, the “Solubility (DLS Assay)” value in data set [5] is given as “+/−”. Also, the Kd on DDB1-BPB [7] came to 4.57 µM.

Turning to `CN(c1ccc(-c2nc(C(=O)O)cc3c2[nH]c2ccc(F)cc23)cc1)S(=O)(=O)c1cccnc1` [PA2-6, 6-fluoro-1-(4-(N-methylpyridine-3-sulfonamido)phenyl)-9H-pyrido[3,4-b]indole-3-carboxylic acid], in data set [1], the IC50 worked out at 0.47 µM. Also, the EC50 in data set [2] is over 100 µM; in data set [3], 22.3 µM. Also, the “Degradation Inhibition” value in data set [4] is “−”. Besides, the “Solubility (DLS Assay)” value in data set [5] is “-(insoluble)”. The same compound showed a Kd at DDB1-BPB [6] of 25.5 µM.

Take `CN(c1ccc(-c2nc(C(=O)O)cc3c2[nH]c2ccc(F)cc23)cc1)S(=O)(=O)c1ccc(F)cc1` [PA2-3, 6-fluoro-1-[4-[(4-fluorophenyl)sulfonyl-methyl-amino]phenyl]-9H-pyrido[3,4-b]indole-3-carboxylic acid]: in data set [1], the IC50 was 0.48 µM. Further, the EC50 in data set [2] is over 100 µM; in data set [3], 13.3 µM. The “Degradation Inhibition” value in data set [4] is recorded as “−”. Besides, the “Solubility (DLS Assay)” value in data set [5] was “-(insoluble)”.

In the case of `Cc1ccc2c(c1)[nH]c1c(-c3ccc(N(C)S(=O)(=O)c4ccccc4)cc3)nc(C(=O)O)cc12` [PA106, 1-[4-[benzenesulfonyl(methyl)amino]phenyl]-7-methyl-9H-pyrido[3,4-b]indole-3-carboxylic acid], the IC50 in data set [1] turned out to be 7.73 µM. For the same compound, the figures for the half-maximal effective concentration (EC50) in data set [2] and in data set [3] were over 100 µM and 7.98 µM, respectively. The “Solubility (DLS Assay)” value in data set [5] is reported as “+/−”. In addition, at DDB1-BPB [6], the dissociation constant Kd came to 443 µM.

As to `CN(c1ccc(-c2nc(C(=O)O)cc3c2[nH]c2cc(Br)ccc23)cc1)S(=O)(=O)c1ccccc1` [PA117, 1-[4-[benzenesulfonyl(methyl)amino]phenyl]-7-bromo-9H-pyrido[3,4-b]indole-3-carboxylic acid], in data set [1], the IC50 turned out to be 2.5 µM. The figures for the EC50 in data set [2] and in data set [3] were 5.48 µM and 3.42 µM, respectively. The same compound yielded a Kd at DDB1-BPB [6] of 25.4 µM.

Turning to `COC(=O)c1cc2c([nH]c3ccccc32)c(-c2ccc(NCc3ccc(F)cc3)cc2)n1` [PA57, methyl 1-[4-[(4-fluorophenyl)methylamino]phenyl]-9H-pyrido[3,4-b]indole-3-carboxylate], the “AlphaLisa IC50” value in data set [1] was “Neg”. In addition, the values for the EC50 in data set [2] and in data set [3] were 1.6 µM and 1.08 µM, respectively. In addition, the “Solubility (DLS Assay)” value in data set [5] is “-(insoluble)”. In addition, the “Kd (MST)” value on DDB1-BPB [6] is “Insoluble”.

In the case of `O=C(O)c1cc2c([nH]c3ccccc32)c(-c2ccc(SCc3ccccc3)cc2)n1` [PA66, 1-(4-benzylsulfanylphenyl)-9H-pyrido[3,4-b]indole-3-carboxylic acid], the IC50 in data set [1] was 5.99 ± 0.43 µM. In addition, the EC50 in data set [2] came to 4 µM; in data set [3], 4.41 µM. On DDB1-BPB [6], this compound yielded a Kd of 59.6 µM.

On to `CN(c1ccc(-c2nc(C(=O)O)cc3c2[nH]c2cc(-c4ccccc4)ccc23)cc1)S(=O)(=O)c1ccccc1` [PA115, 1-[4-[benzenesulfonyl(methyl)amino]phenyl]-7-phenyl-9H-pyrido[3,4-b]indole-3-carboxylic acid], for which the half-inhibitory concentration (IC50) in data set [1] turned out to be 17.4 ± 7.42 µM. Further, the values for the EC50 in data set [2] and in data set [3] were 3.86 µM and 2.15 µM, respectively. Besides, the “Solubility (DLS Assay)” value in data set [5] is given as “-(insoluble)”. Moreover, the affinity at DDB1-BPB [6], expressed as Kd, was 257 µM.

Regarding `COC(=O)c1cc2c([nH]c3ccccc32)c(-c2ccc(SCc3ccccc3)cc2)n1` [PA64, methyl 1-(4-benzylsulfanylphenyl)-9H-pyrido[3,4-b]indole-3-carboxylate], the “AlphaLisa IC50” value in data set [1] is “Neg”. Also, the EC50 is over 20 µM in data set [2] and 22.8 µM in data set [3]. On DDB1-BPB [6], the “Kd (MST)” value is listed as “Insoluble”.

`CS(=O)(=O)c1ccc(-c2nc(C(=O)O)cc3c2[nH]c2ccccc23)cc1` [PA35, 1-(4-methylsulfonylphenyl)-9H-pyrido[3,4-b]indole-3-carboxylic acid]: the IC50 in data set [1] is 1.06 ± 0.51 µM. In addition, the EC50 in data set [2] and in data set [3] was over 100 µM in each case. This compound also yielded a Kd at DDB1-BPB [7] of 5.58 µM.

Consider `COc1ccc(S(=O)(=O)N(C)c2ccc(-c3nc(C(=O)O)cc4c3[nH]c3ccc(F)cc34)cc2)cc1` [PA2-2, 6-fluoro-1-[4-[(4-methoxyphenyl)-sulfonyl-methyl-amino]phenyl]-9H-pyrido[3,4-b]indole-3-carboxylic acid], for which the IC50 in data set [1] stood at 0.89 µM. In addition, the values for the EC50 in data set [2] and in data set [3] were over 100 µM and 8.45 µM, respectively. Moreover, the “Degradation Inhibition” value in data set [4] is “−”. The “Solubility (DLS Assay)” value in data set [5] is recorded as “-(insoluble)”.
